Reference: patent US11638401B2, “Methods and compositions for increasing tolerance to abiotic stress in plants” (priority 2018, dated 2023)

Columns and labels:
Soybean [1] = test: Soybean - Two Year Summary, field trials; format: in vivo; conditions: Photon 8 g ai/A, Aminoguanidine 2 g ai/A, control 38.9, LSD 0.01 3.9
Excerpt: (§1) In the table below, the treatment labeled “Photon” represents a mixture of azelaic, sebacic, undecanedioic, acids. It is predominantly azelaic acid, and equal parts of the remaining two major constituents. Abbreviations: ai=active ingredient, A=acre, ha=hectare, lbs=pounds, MT=metric ton • Soybean Trial 2018 • Elm City N.C. • Randomized complete block with 5 replicates

Soybean [2] = test: Soybean Trial 2018, field trial; format: in vivo; conditions: Soybean 2018, Elm City N.C.; Photon 8 g ai/A, Aminoguanidine 2 g ai/A; control 22.3; LSD 0.05 3.8
Excerpt: as §1

SMILES: N=C(N)NN [Aminoguanidine, aminoguanidine]
- Yield (bu/A) (Soybean [1]): 42.5 bu/A
- Yield (bu/A) (Soybean [2]): 24.3 bu/A
